Residues, ends and D or L forms follow the SMILES beside them. *: point of attachment. Cbz = O=C(OCc1ccccc1)*; CH2F = FC*
Experiments:
[1] = target: T1, Marasmius oreades agglutinin (MOA) (Marasmius oreades, UniProt Q8X123); experiment: X-ray crystal structure (co-crystal, […]-1.[…] Å); assay type: binding; conditions: calcium, imidazole pH 8.0
T1 construct: wild-type full-length 293 aa cDNA (MOApT7-LO), E. coli BL21(DE3), no tag mentioned; homodimer; model residues 2-293, Met1 probably cleaved

[2] = target: the molecule itself; experiment: crystal structure; MOA 5 mg/ml mixed with Galα1,3(Fucα1,2)Gal trisaccharide (1:20) and Z-VAD-fmk (1:3, 1:20 or 1:30 MOA:inhibitor); 0.1 M imidazole pH 8.0, 10-16% PEG 8000, 0.2 M calcium acetate, with or without 5% DMSO; space group P6(3)22; three data sets (ZVAD-direct, ZVAD-inverted, ZVAD-dual)

Molecule: C[C@@H]1O[C@@H](O[C@H]2C(O)O[C@H](CO)[C@H](O)[C@@H]2O[C@H]2O[C@H](CO)[C@H](O)[C@H](O)[C@H]2O)[C@@H](O)[C@H](O)[C@@H]1O (stereo partly drawn) [Galα1,3(Fucα1,2)Gal trisaccharide]
- X-ray crystal structure (co-crystal, 1.6-1.7 Å) ([1]; three lectin-domain sugar sites (α, β, γ), 1:20 MOA:sugar): The three sugar binding sites of MOA show a different preference for the anomeric form

Molecule: CC(C)[C@H](NC(=O)OCc1ccccc1)C(=O)N[C@@H](C)C(=O)N[C@@H](CC(=O)O)C(=O)CF [Z-VAD-fmk] (Cbz-Val-Ala-Asp-CH2F)
- X-ray crystal structure (co-crystal, 1.6-1.7 Å) ([1]; covalent, thioether with catalytic Cys215, direct and inverted orientations): the inhibitor molecule binds to the active site of MOA forming a thioether

B1: Marasmius oreades agglutinin (MOA), wild type (enzyme)
chain: MSLRRGIYHIENAGVPSAIDLKDGSSSDGTPIVGWQFTPDTINWHQLWLAEPIPNVADTFTLCNLFSGTYMDLYNGSSEAGTAVNGWQGTAFTTNPHQLWTIKKSSDGTSYKIQNYGSKTFVDLVNGDSSDGAKIAGWTGTWDEGNPHQKWYFNRMSVSSAEAQAAIARNPHIHGTYRGYILDGEYLVLPNATFTQIWKDSGLPGSKWREQIYDCDDFAIAMKAAVGKWGADSWKANGFAIFCGVMLGVNKAGDAAHAYNFTLTKDHADIVFFEPQNGGYLNDIGYDSYMAFY
notes: Marasmius oreades agglutinin, wild-type cDNA in vector MOApT7-LO; 293 amino acids; Homodimer; one protomer in the asymmetric unit, the dimer arises by crystallographic symmetry; source: E. coli BL21 (DE3), purified (D-Gal-sepharose, cation exchange, size exclusion)
- binding result [2]: binds

Reference: paper PMC4764322, “An Unusual Member of the Papain Superfamily: Mapping the Catalytic Cleft of the Marasmius oreades agglutinin (MOA) with a Caspase Inhibitor” (PLoS ONE, 2016)
